Some test systems named below: HS 578T breast; NCI-H522 lung; DMS 273 small cell lung; KM20L2 colon; SNB-78 CNS; XF 498 CNS; DLD-1 colon; DMS 114 small cell lung.
Holding throughout (assay): NCI anticancer screen, dose series, 48 h

SMILES strings stand for the structures.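 Exposure lasted 48 hours, with cells grown in 96-well plates and compounds tested at five concentrations. TGI denotes the concentration required for complete inhibition of growth.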

Regarding `COc1ccc(C(CC(=O)c2cccs2)C(=O)c2ccc3c(c2)OCO3)cc1` (stereo not drawn), the TGI in the assay on HS 578T breast was more than 100 µM.
The molecule `CC(NC(CC12CC3CC(CC(C3)C1)C2)C(N)=O)c1ccccc1` (stereo not drawn) registered a TGI in the assay on NCI-H522 lung of 47.5 µM.
For `CCCOC(=O)CCC(NC(=O)c1ccc(Nc2nc3ccccc3nc2-c2cccs2)cc1)C(=O)OCCC` (stereo not drawn), the TGI with DMS 273 small cell lung, in the assay with KM20L2 colon, in the assay on NCI-H522 lung, in the assay on SNB-78 CNS and in the assay on XF 498 CNS was more than 100 µM each time.
For `CC/C(CC(=O)CCC(=O)Nc1ccc(C)c(C)c1)=N\NC(=O)c1cc2ccccc2cc1O`, the TGI with DLD-1 colon, with DMS 114 small cell lung and with SNB-78 CNS was more than 100 µM each time.
Consider `O=C(OC1C#CCSCC#C/C=C\1)c1ccc2c(c1)C(=O)c1ccccc1C2=O` (stereo not drawn), for which the figures for the TGI with HS 578T breast and in the assay with NCI-H522 lung were more than 100 µM and 62.7 µM, respectively.
Regarding `Cc1c(CCCl)c(Cl)n2c(nc3ccccc32)c1C#N`, the TGI was 2.44 µM in the assay with DLD-1 colon; 2.84 µM in the assay on DMS 114 small cell lung; 3.15 µM in the assay with DMS 273 small cell lung; 2.11 µM in the assay on KM20L2 colon; 1.46 µM in the assay on NCI-H522 lung; more than 100 µM with SNB-78 CNS.

These data come from PubChem BioAssay (NCI).
